Some results are limits rather than exact numbers.

The source of these data is patent publication US20240390340A1 (INCYTE CORPORATION, priority 2023, published 2024).

Data set [1] deals with KRAS G12D (Homo sapiens, UniProt P01116, G12D). Description: GDP-GTP exchange assay (bodipy-GDP/GppNHp, SOS1), KRAS G12D. The data set is classed as biochemical. As to conditions: Table H, column G12D; for compounds isolated as several atropisomers/diastereoisomers the value for the most potent isomer is quoted; read-out: KRAS G12D exchange assay IC50.
Chain of KRAS G12D (P01116 1-188 isoform P01116-2 G12D): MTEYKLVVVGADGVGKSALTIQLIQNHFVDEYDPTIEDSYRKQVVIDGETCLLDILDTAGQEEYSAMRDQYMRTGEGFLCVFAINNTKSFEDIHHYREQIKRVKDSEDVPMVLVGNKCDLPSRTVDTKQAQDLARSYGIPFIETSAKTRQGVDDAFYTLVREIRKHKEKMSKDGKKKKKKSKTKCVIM
Data set [2] addresses KRAS G12V (Homo sapiens, UniProt P01116, G12V). Description: GDP-GTP exchange assay (bodipy-GDP/GppNHp, SOS1), KRAS G12V. The format is biochemical. As to conditions: Table H, column G12V; for compounds isolated as several atropisomers/diastereoisomers the value for the most potent isomer is quoted; read-out: KRAS G12V exchange assay IC50.
Data set [3] has as its system Caco-2 cells. Description: Caco2 assay (Papp A-B). The format is in vitro ADME. As to conditions: test compound 50 μM, 120 min, 37° C. An outline of the steps: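 Caco-2 monolayers grown 22–25 days on Transwells (TEER 300 Ω·cm^2) were dosed apically with 50 μM compound in HBSS; basolateral receiver held HBSS with 4% BSA. Incubation 120 min at 37° C, 5% CO2; donor and receiver samples quantified by LCMS and Papp A-B calculated from receiver-side cumulative flux slope.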

Chain of KRAS G12V (P01116 1-188 isoform P01116-2 G12V): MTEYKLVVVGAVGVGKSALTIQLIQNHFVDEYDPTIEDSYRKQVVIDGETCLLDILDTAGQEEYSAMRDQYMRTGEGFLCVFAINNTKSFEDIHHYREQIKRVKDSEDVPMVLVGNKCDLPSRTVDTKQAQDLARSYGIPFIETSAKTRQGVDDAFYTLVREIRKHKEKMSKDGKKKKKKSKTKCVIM

On to `COc1ncccc1O[C@H]1C[C@H](c2cc3c(C)nc4c(F)c(-c5cccc(Cl)c5Cl)c(CCC#N)cc4c3n2[C@H]2[C@H]3CN[C@@H]2C3)N(C(=O)C2CC2)C1` [Example 1, 3-(1-((1R,4R,5S)-2-Azabicyclo[2.1.1]hexan-5-yl)-2-((2R,4S)-1-(cyclopropanecarbonyl)-4-((2-methoxypyridin-3-yl)oxy)pyrrolidin-2-yl)-7-(2,3-dichlorophenyl)-6-fluoro-4-methyl-1H-pyrrolo[3,2-c]quinolin-8-yl)propanenitrile], for which the IC50 in data set [1] and in data set [2] was no more than 100 nM throughout. In addition, the Caco-2 entry in data set [3] is reported as “+++ (a Caco-2 value of >1)”.

On to `Cc1cc(F)cc(O[C@H]2C[C@H](c3cc4c([C@@H](C)O)nc5c(F)c(-c6cccc(Cl)c6Cl)c(CCC#N)cc5c4n3[C@H]3[C@H]4CN[C@@H]3C4)N(C(=O)C3CC3)C2)n1` [Example 62, 3-(1-((1R,4R,5S)-2-Azabicyclo[2.1.1]hexan-5-yl)-2-((2R,4S)-1-(cyclopropanecarbonyl)-4-((4-fluoro-6-methylpyridin-2-yl)oxy)pyrrolidin-2-yl)-7-(2,3-dichlorophenyl)-6-fluoro-4-((R)-1-hydroxyethyl)-1H-pyrrolo[3,2-c]quinolin-8-yl)propanenitrile], for which the concentration for half-maximal inhibition (IC50) in data set [1] and in data set [2] was no more than 100 nM throughout. For the same compound, the Caco-2 result in data set [3] was “++ (a Caco-2 value of >0.5 but ≤1)”.

As to `Cc1cccc(F)c1CO[C@H]1C[C@H](c2cc3c(C)nc4c(F)c(-c5cccc(Cl)c5Cl)c(CCC#N)cc4c3n2[C@H]2[C@H]3CN[C@@H]2C3)N(C(=O)C2CC2)C1` [Example 19], the IC50 in data set [1] and in data set [2] was no more than 100 nM throughout. Besides, the Caco-2 entry in data set [3] is “+ (a Caco-2 value of ≤0.5)”.

Consider `COc1cc(O[C@H]2C[C@H](c3cc4c(C(C)O)nc5c(F)c(-c6cccc(Cl)c6Cl)c(CCC#N)cc5c4n3[C@H]3[C@H]4CN[C@@H]3C4)N(C(=O)C3CC3)C2)ccn1` (stereo partly drawn) [Example 2, 3-(1-((1R,4R,5S)-2-Azabicyclo[2.1.1]hexan-5-yl)-2-((2R,4S)-1-(cyclopropanecarbonyl)-4-((2-methoxypyridin-4-yl)oxy)pyrrolidin-2-yl)-7-(2,3-dichlorophenyl)-6-fluoro-4-(1-hydroxyethyl)-1H-pyrrolo[3,2-c]quinolin-8-yl)propanenitrile], for which the IC50 in data set [1] and in data set [2] was no more than 100 nM each time. Moreover, the Caco-2 result in data set [3] is on record as “+++ (a Caco-2 value of >1)”.

As to `Cc1csnc1CO[C@H]1C[C@H](c2cc3c(-c4ccc(C(C)(C)O)nc4)nc4c(F)c(-c5cccc(Cl)c5Cl)c(CCC#N)cc4c3n2[C@H]2[C@H]3CN[C@@H]2C3)N(C(=O)C2CC2)C1` [Example 25], the IC50 in data set [1] and in data set [2] was no more than 100 nM throughout. Also, the Caco-2 entry in data set [3] is “+ (a Caco-2 value of ≤0.5)”.

With `COc1cc(O[C@H]2C[C@H](c3cc4c(C)nc5c(F)c(-c6cccc(Cl)c6Cl)c(CCC#N)cc5c4n3[C@H]3[C@H]4CN[C@@H]3C4)N(C(=O)C3CC3)C2)c(F)cn1` [Example 43, 3-(1-((1R,4R,5S)-2-Azabicyclo[2.1.1]hexan-5-yl)-2-((2R,4S)-1-(cyclopropanecarbonyl)-4-((5-fluoro-2-methoxypyridin-4-yl)oxy)pyrrolidin-2-yl)-7-(2,3-dichlorophenyl)-6-fluoro-4-methyl-1H-pyrrolo[3,2-c]quinolin-8-yl)propanenitrile], the IC50 in data set [1] and in data set [2] was no more than 100 nM in each case. Also, in data set [3], the Caco-2 entry was “+ (a Caco-2 value of ≤0.5)”.

`COc1cc(O[C@H]2C[C@H](c3cc4c([C@@H](C)O)nc5c(F)c(-c6cccc(Cl)c6Cl)c(CCC#N)cc5c4n3[C@H]3[C@H]4CN[C@@H]3C4)N(C(=O)C3CC3)C2)ncn1` [Example 57, 3-(1-((1R,4R,5S)-2-Azabicyclo[2.1.1]hexan-5-yl)-2-((2R,4S)-1-(cyclopropanecarbonyl)-4-((6-methoxypyrimidin-4-yl)oxy)pyrrolidin-2-yl)-7-(2,3-dichlorophenyl)-6-fluoro-4-((R)-1-hydroxyethyl)-1H-pyrrolo[3,2-c]quinolin-8-yl)propanenitrile]: the IC50 in data set [1] and in data set [2] was no more than 100 nM throughout. The Caco-2 entry in data set [3] was “++ (a Caco-2 value of >0.5 but ≤1)”.

As to `Cc1nc2c(F)c(-c3cccc(Cl)c3Cl)c(CCC#N)cc2c2c1cc([C@H]1C[C@H](Oc3cccnc3F)CN1C(=O)C1CC1)n2[C@H]1[C@H]2CN[C@@H]1C2` [Example 39, 3-(1-((1R,4R,5S)-2-Azabicyclo[2.1.1]hexan-5-yl)-2-((2R,4S)-1-(cyclopropanecarbonyl)-4-((2-fluoropyridin-3-yl)oxy)pyrrolidin-2-yl)-7-(2,3-dichlorophenyl)-6-fluoro-4-methyl-1H-pyrrolo[3,2-c]quinolin-8-yl)propanenitrile], the IC50 in data set [1] and in data set [2] was no more than 100 nM throughout. Also, the Caco-2 result in data set [3] is “++ (a Caco-2 value of >0.5 but ≤1)”.

For `Cc1nc2c(F)c(-c3cccc(Cl)c3Cl)c(CCC#N)cc2c2c1cc([C@H]1C[C@H](OCc3ccc(F)cc3C#N)CN1C(=O)C1CC1)n2[C@H]1[C@H]2CN[C@@H]1C2` [Example 17], the IC50 in data set [1] and in data set [2] was no more than 100 nM in each case. The Caco-2 result in data set [3] is “+ (a Caco-2 value of ≤0.5)”.

`Cc1nc2c(F)c(-c3cccc(Cl)c3Cl)c(CCC#N)cc2c2c1cc([C@H]1C[C@H](n3nccn3)CN1C(=O)C1CC1)n2[C@H]1[C@H]2CN[C@@H]1C2` [Example 74, 3-(1-((1R,4R,5S)-2-Azabicyclo[2.1.1]hexan-5-yl)-2-((2R,4S)-1-(cyclopropanecarbonyl)-4-(2H-1,2,3-triazol-2-yl)pyrrolidin-2-yl)-7-(2,3-dichlorophenyl)-6-fluoro-4-methyl-1H-pyrrolo[3,2-c]quinolin-8-yl)propanenitrile]: the half-inhibitory concentration (IC50) in data set [1] and in data set [2] was no more than 100 nM throughout. Further, the Caco-2 entry in data set [3] is given as “++ (a Caco-2 value of >0.5 but ≤1)”.

For `Cc1nc2c(F)c(-c3cccc(Cl)c3Cl)c(CCC#N)cc2c2c1cc([C@H]1C[C@H](OCc3ccccc3F)CN1C(=O)C1CC1)n2[C@H]1[C@H]2CN[C@@H]1C2` [Example 20], the IC50 in data set [1] and in data set [2] was no more than 100 nM throughout. Also, the Caco-2 result in data set [3] is reported as “+ (a Caco-2 value of ≤0.5)”.

For the compound `Cc1nc2c(F)c(-c3cccc(Cl)c3Cl)c(CCC#N)cc2c2c1cc([C@H]1C[C@H](n3nncc3C3CCCC3)CN1C(=O)C1CC1)n2[C@H]1[C@H]2CN[C@@H]1C2` [Example 71, 3-(1-((1R,4R,5S)-2-Azabicyclo[2.1.1]hexan-5-yl)-2-((2R,4S)-4-(5-cyclopentyl-1H-1,2,3-triazol-1-yl)-1-(cyclopropanecarbonyl)pyrrolidin-2-yl)-7-(2,3-dichlorophenyl)-6-fluoro-4-methyl-1H-pyrrolo[3,2-c]quinolin-8-yl)propanenitrile], the IC50 in data set [1] and in data set [2] was no more than 100 nM each time. Also, the Caco-2 result in data set [3] is “+ (a Caco-2 value of ≤0.5)”.

As for `Cc1nc2c(F)c(-c3cccc(Cl)c3Cl)c(CCC#N)cc2c2c1cc([C@H]1C[C@H](Oc3cnn(C)c3C#N)CN1C(=O)C1CC1)n2[C@H]1[C@H]2CN[C@@H]1C2` [Example 46, 4-(((3S,5R)-5-(1-((1R,4R,5S)-2-Azabicyclo[2.1.1]hexan-5-yl)-8-(2-cyanoethyl)-7-(2,3-dichlorophenyl)-6-fluoro-4-methyl-1H-pyrrolo[3,2-c]quinolin-2-yl)-1-(cyclopropanecarbonyl)pyrrolidin-3-yl)oxy)-1-methyl-1H-pyrazole-5-carbonitrile], the IC50 in data set [1] and in data set [2] was no more than 100 nM in each case. Besides, the Caco-2 result in data set [3] is “+ (a Caco-2 value of ≤0.5)”.
